Experimental data taken from the supplement of paper PMC10307832.

Legend:
Test in all cases: relative viability (nuclei count vs DMSO), 5 days (fraction); higher = more cells survive
[1] = test system: NCI-H650
In short: (§1)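 Dosing by pin tool came one day after lung cancer cell lines were seeded in 1536-well plates, using either one drug or a fixed anchor-drug dose plus five library-drug doses (not always all listed) in √10 steps. After 5 days, nuclei were counted on 4× images. Relative viability is treated-well nuclei count divided by vehicle-well nuclei count, and values are medians of duplicate plates.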

[2] = test system: LOU-NH91
In short: as §1

[3] = test system: HCC-78
In short: as §1

[4] = test system: NCI-H838
In short: as §1

[5] = test system: NCI-H1734
In short: as §1

[6] = test system: NCI-H1395
In short: as §1

[7] = test system: NCI-H1915
In short: as §1

[8] = test system: NCI-H2023
In short: as §1

[9] = test system: A-427
In short: as §1

[10] = test system: NCI-H661
In short: as §1

[11] = test system: NCI-H3122
In short: as §1

[12] = test system: NCI-H596
In short: as §1

[13] = test system: HOP-62
In short: as §1

[14] = test system: SK-MES-1
In short: as §1

[15] = test system: HCC-366
In short: as §1

[16] = test system: NCI-H358
In short: as §1

[17] = test system: COR-L23
In short: as §1

[18] = test system: EKVX
In short: as §1

[19] = test system: NCI-H1650
In short: as §1

[20] = test system: NCI-H2087
In short: as §1

[21] = test system: HCC-44
In short: as §1

[22] = test system: EPLC-272H
In short: as §1

O=C(O)CCCCC(CCSCc1ccccc1)SCc1ccccc1 (centres undefined) [CPI-613] + CS(=O)(=O)CCNCc1ccc(-c2ccc3ncnc(Nc4ccc(OCc5cccc(F)c5)c(Cl)c4)c3c2)o1 [Lapatinib] (partner 2 µM)
relative viability ([1]; first compound 5 µM): 1.05 | relative viability ([1]; first compound 15.81 µM): 0.913 | relative viability ([1]; first compound 50 µM): 1.11 | relative viability ([1]; first compound 158.11 µM): 0.84 | relative viability ([1]; first compound 500 µM): 0.724 | relative viability ([2]; first compound 5 µM): 0.79 | relative viability ([2]; first compound 15.81 µM): 0.722 | relative viability ([2]; first compound 50 µM): 0.834 | relative viability ([2]; first compound 158.11 µM): 0.739 | relative viability ([2]; first compound 500 µM): 0.699 | relative viability ([3]; first compound 5 µM): 0.825 | relative viability ([3]; first compound 15.81 µM): 0.591 | relative viability ([3]; first compound 158.11 µM): 0.816 | relative viability ([3]; first compound 500 µM): 1.14 | relative viability ([4]; first compound 5 µM): 0.862 | relative viability ([4]; first compound 15.81 µM): 0.783 | relative viability ([4]; first compound 50 µM): 0.846 | relative viability ([4]; first compound 158.11 µM): 0.601 | relative viability ([4]; first compound 500 µM): 0.0634 | relative viability ([5]; first compound 5 µM): 0.939 | relative viability ([5]; first compound 15.81 µM): 0.686 | relative viability ([5]; first compound 50 µM): 1 | relative viability ([5]; first compound 158.11 µM): 0.349 | relative viability ([5]; first compound 500 µM): 0.116 | relative viability ([6]; first compound 5 µM): 1.01 | relative viability ([6]; first compound 15.81 µM): 0.91 | relative viability ([6]; first compound 50 µM): 1.08 | relative viability ([6]; first compound 158.11 µM): 0.773 | relative viability ([6]; first compound 500 µM): 0.894 | relative viability ([7]; first compound 5 µM): 0.948 | relative viability ([7]; first compound 15.81 µM): 1.02 | relative viability ([7]; first compound 50 µM): 0.948 | relative viability ([7]; first compound 158.11 µM): 0.873 | relative viability ([7]; first compound 500 µM): 0.832 | relative viability ([8]; first compound 5 µM): 0.694 | relative viability ([8]; first compound 15.81 µM): 0.63 | relative viability ([8]; first compound 50 µM): 0.755 | relative viability ([8]; first compound 158.11 µM): 0.0743 | relative viability ([8]; first compound 500 µM): 0.0041 | relative viability ([9]; first compound 5 µM): 0.974 | relative viability ([9]; first compound 15.81 µM): 0.94 | relative viability ([9]; first compound 50 µM): 1.07 | relative viability ([9]; first compound 158.11 µM): 0.996 | relative viability ([9]; first compound 500 µM): 0.948 | relative viability ([10]; first compound 5 µM): 0.419 | relative viability ([10]; first compound 15.81 µM): 0.367 | relative viability ([10]; first compound 50 µM): 0.581 | relative viability ([10]; first compound 158.11 µM): 0.49 | relative viability ([10]; first compound 500 µM): 0.576 | relative viability ([11]; first compound 5 µM): 1.02 | relative viability ([11]; first compound 15.81 µM): 0.971 | relative viability ([11]; first compound 50 µM): 0.994 | relative viability ([11]; first compound 158.11 µM): 0.856 | relative viability ([11]; first compound 500 µM): 0.0332 | relative viability ([12]; first compound 5 µM): 1.01 | relative viability ([12]; first compound 15.81 µM): 1.05 | relative viability ([12]; first compound 50 µM): 1.02 | relative viability ([12]; first compound 158.11 µM): 1.05 | relative viability ([12]; first compound 500 µM): 0.0407 | relative viability ([13]; first compound 5 µM): 1.06 | relative viability ([13]; first compound 15.81 µM): 0.855 | relative viability ([13]; first compound 50 µM): 0.935 | relative viability ([13]; first compound 158.11 µM): 0.804 | relative viability ([13]; first compound 500 µM): 0.107 | relative viability ([14]; first compound 5 µM): 0.458 | relative viability ([14]; first compound 15.81 µM): 0.399 | relative viability ([14]; first compound 50 µM): 0.428 | relative viability ([14]; first compound 158.11 µM): 0.408 | relative viability ([14]; first compound 500 µM): 0.458 | relative viability ([15]; first compound 5 µM): 0.959 | relative viability ([15]; first compound 15.81 µM): 1.02 | relative viability ([15]; first compound 50 µM): 1 | relative viability ([15]; first compound 158.11 µM): 0.284 | relative viability ([15]; first compound 500 µM): 0.0085 | relative viability ([16]; first compound 5 µM): 0.416 | relative viability ([16]; first compound 15.81 µM): 0.436 | relative viability ([16]; first compound 50 µM): 0.409 | relative viability ([16]; first compound 158.11 µM): 0.296 | relative viability ([16]; first compound 500 µM): 0.0347 | relative viability ([17]; first compound 5 µM): 0.826 | relative viability ([17]; first compound 15.81 µM): 0.969 | relative viability ([17]; first compound 50 µM): 0.746 | relative viability ([17]; first compound 158.11 µM): 0.459 | relative viability ([17]; first compound 500 µM): 0.0098 | relative viability ([18]; first compound 5 µM): 0.186 | relative viability ([18]; first compound 15.81 µM): 0.208 | relative viability ([18]; first compound 50 µM): 0.218 | relative viability ([18]; first compound 158.11 µM): 0.193 | relative viability ([18]; first compound 500 µM): 0.206 | relative viability ([19]; first compound 5 µM): 0.584 | relative viability ([19]; first compound 15.81 µM): 0.662 | relative viability ([19]; first compound 50 µM): 0.719 | relative viability ([19]; first compound 158.11 µM): 0.082 | relative viability ([19]; first compound 500 µM): 0.023 | relative viability ([20]; first compound 5 µM): 1.06 | relative viability ([20]; first compound 15.81 µM): 0.934 | relative viability ([20]; first compound 50 µM): 0.72 | relative viability ([20]; first compound 158.11 µM): 0.525 | relative viability ([20]; first compound 500 µM): 0.012 | relative viability ([21]; first compound 5 µM): 0.991 | relative viability ([21]; first compound 15.81 µM): 0.937 | relative viability ([21]; first compound 50 µM): 1.04 | relative viability ([21]; first compound 158.11 µM): 0.838 | relative viability ([21]; first compound 500 µM): 0.0306 | relative viability ([22]; first compound 5 µM): 0.905 | relative viability ([22]; first compound 15.81 µM): 0.828 | relative viability ([22]; first compound 50 µM): 0.879 | relative viability ([22]; first compound 158.11 µM): 1 | relative viability ([22]; first compound 500 µM): 0.857
